Reference: patent US6855730B2, “3-methylidenyl-2-indolinone modulators of protein kinase” (Sugen, Inc., priority 1998, dated 2005)

Target: EGFR (Homo sapiens, UniProt P00533)
Experiment: EGFR assay (cellular ELISA, NIH 3T3/C7 cells)
Type: cell-based
Design: expressed in transfected cells; host or cells: NIH 3T3/C7
Details: read-out: cell EGF IC50
Protocol: EGF Receptor kinase activity in cells genetically engineered to express human EGF-R can be measured as described below:
Materials and Reagents. • a. […] 05-101 (UBI) (a monoclonal antibody recognizing an EGFR extracellular domain). • c. Anti-phosphotyosine antibody (anti-Ptyr) (polyclonal). • d. Detection antibody: Goat anti-rabbit IgG horse radish peroxidase conjugate, TAGO, Inc. Burlingame, Calif. • e. TBST buffer:
• Keep solution in dark at 4° C. until used. • h. Stock reagents of:
Pre-coat ELISA Plate • 1. […] Coated plates are good for up to 10 days when stored at 4° C. • 2. On day-of use, remove coating buffer and replace with blocking buffer (5% Carnation Instant NonFat Dry Milk in PBS). Incubate the plate, shaking, at room temperature (about 23° C. to 25° C.) for 30 minutes. Just prior to use, remove blocking buffer and wash plate 4 times with TBST buffer.
Seeding Cells • 1. […] Choose dishes having 80-90% confluence for the experiment. Trypsinize cells and stop reaction by adding 10% CS DMEM medium. Suspend cells in DMEM medium (10% CS DMEM medium) and centrifuge once at 1000 rpm at room temperature for 5 minutes. • 3. Resuspend cells in seeding medium (DMEM, 0.5% bovine serum), and count the cells using trypan blue. Viability above 90% is acceptable. Seed cells in DMEM medium (0.5% bovine serum) at a density of 10,000 cells per well, 100 μl per well, in a 96 well microtiter plate. Incubate seeded cells in 5% CO2 at 37° C. for about 40 hours.
Assay Procedures. • 1. Check seeded cells for contamination using an inverted microscope. Dilute test compounds stock (10 mg/ml in DMSO) 1:10 in DMEM medium, then transfer 5 μl to a test well for a test compounds drug dilution of 1:200 and a final DMSO concentration of 1%. Control wells receive DMSO alone. Incubate in 5% CO2 at 37° C. for one hour. • 2. Prepare EGF ligand: dilute stock EGF in DMEM so that upon transfer of 10 μl dilute EGF (1:12 dilution), 25 nM final concentration is attained. • 3. Prepare fresh 10 ml HNTG* sufficient for 100 μl per well wherein HNTG* comprises: HNTG stock (2.0 ml), milli-Q H2O (7.3 ml), EDTA, 100 mM, pH 7.0 (0.5 ml), Na3VO4 0.5 M (0.1 ml) and Na4(P2O7), 0.2 M (0.1 ml). • 4. Place on ice. • 5. After two hours incubation with drug, add prepared EGF ligand to cells, 10 μl per well, to yield a final concentration of 25 nM. Control wells receive DMEM alone. Incubate, shaking, at room temperature, for 5 minutes. • 6. Remove test compound, EGF, and DMEM. Wash cells twice with PBS. Transfer HNTG* to cells, 100 μl per well. Place on ice for 5 minutes. Meanwhile, remove blocking buffer from other ELISA plate and wash with TBST as described above. • 7. With a pipette tip securely fitted to a micropipettor, scrape cells from plate and homogenize cell material by repeatedly aspirating and dispensing the HNTG* lysis buffer. Transfer lysate to a coated, blocked, and washed ELISA plate. Incubate shaking at room temperature for one hour. • 8. Remove lysate and wash 4 times with TBST. Transfer freshly diluted anti-Ptyr antibody to ELISA plate at 100 μl per well. Incubate shaking at room temperature for 30 minutes in the presence of the anti-Ptyr antiserum (1:3000 dilution in TBST). • 9. Remove the anti-Ptyr antibody and wash 4 times with TBST. Transfer the freshly diluted TAGO 30 anti-rabbit IgG antibody to the ELISA plate at 100 μl per well. Incubate shaking at room temperature for 30 minutes (anti-rabbit IgG antibody: 1:3000 dilution in TBST). • 10. Remove detection antibody and wash 4 times with TBST. Transfer freshly prepared ABTS/H2O2 solution to ELISA plate, 100 μl per well. Incubate at room temperature for 20 minutes. ABTS/H2O2 solution: 1.2 μl 30% H2O2 in 10 ml ABTS stock. • 11. Stop reaction by adding 50 μl 5N H2SO4 (optional), and determine O.D. at 410 nm. • 12. The maximal phosphotyrosine signal is determined by subtracting the value of the negative controls from the positive controls. […]

Sequence of EGFR (P00533 25-1210): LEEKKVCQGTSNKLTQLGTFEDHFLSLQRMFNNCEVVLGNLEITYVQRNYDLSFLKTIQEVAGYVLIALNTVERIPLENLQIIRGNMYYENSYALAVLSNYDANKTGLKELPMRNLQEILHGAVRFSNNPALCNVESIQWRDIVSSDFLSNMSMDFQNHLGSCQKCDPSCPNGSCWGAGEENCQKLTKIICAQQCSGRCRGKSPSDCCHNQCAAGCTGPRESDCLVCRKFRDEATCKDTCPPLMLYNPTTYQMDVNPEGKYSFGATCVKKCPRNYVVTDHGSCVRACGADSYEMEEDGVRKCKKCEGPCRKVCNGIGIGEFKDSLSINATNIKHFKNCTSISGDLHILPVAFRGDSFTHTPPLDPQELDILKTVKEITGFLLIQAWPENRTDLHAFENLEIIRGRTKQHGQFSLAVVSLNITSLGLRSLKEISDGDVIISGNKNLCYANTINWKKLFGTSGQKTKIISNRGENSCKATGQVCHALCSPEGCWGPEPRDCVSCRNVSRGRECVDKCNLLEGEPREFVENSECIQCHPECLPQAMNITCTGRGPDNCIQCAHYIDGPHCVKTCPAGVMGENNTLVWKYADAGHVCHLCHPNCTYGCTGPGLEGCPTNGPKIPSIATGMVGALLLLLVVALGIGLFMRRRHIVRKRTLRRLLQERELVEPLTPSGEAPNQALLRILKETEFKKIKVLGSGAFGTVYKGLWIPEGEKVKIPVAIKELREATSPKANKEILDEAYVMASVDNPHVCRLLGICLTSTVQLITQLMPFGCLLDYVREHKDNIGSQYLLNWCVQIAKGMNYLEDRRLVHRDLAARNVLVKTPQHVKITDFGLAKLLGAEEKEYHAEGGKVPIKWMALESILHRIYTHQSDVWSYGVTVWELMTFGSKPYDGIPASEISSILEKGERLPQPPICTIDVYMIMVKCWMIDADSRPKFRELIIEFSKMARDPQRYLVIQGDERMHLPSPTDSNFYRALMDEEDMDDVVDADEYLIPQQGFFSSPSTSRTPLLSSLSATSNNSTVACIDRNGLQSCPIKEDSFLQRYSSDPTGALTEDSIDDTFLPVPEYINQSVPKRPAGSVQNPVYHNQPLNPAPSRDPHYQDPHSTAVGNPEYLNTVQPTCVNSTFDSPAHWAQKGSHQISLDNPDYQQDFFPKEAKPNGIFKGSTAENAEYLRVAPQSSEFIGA

Row | SMILES | IC50 [µM]
1 | COc1ccc(/C=C2\C(=O)Nc3cccc(C)c32)cc1C1CCCCC1 [Example 68, 3-(3-Cyclohexyl-4-methoxybenzylidene)-4-methyl-1,3-dihydroindol-2-one] | > 100
2 | CC(=O)Nc1ccc2c(c1)NC(=O)/C2=C/c1ccc(OCCN2CCOCC2)c(C2CCCCC2)c1 [Example 16, N-{3-[3-Cyclohexyl-4-(2-morpholin-4-ylethoxy)-benzylidene]-2-oxo-2,3-dihydro-1H-indol-6-yl}-acetamide] | 44.5
3 | CC1(C)CCc2cc(/C=C3/C(=O)Nc4ccc(Cl)cc43)ccc2O1 [Example 15, 5-Chloro-3-(2,2-dimethyl-chroman-6-ylmethylene)-1,3-dihydroindol-2-one] | 46.5
4 | Cc1cc(CCC(=O)O)c(/C=C2\C(=O)Nc3ccc(Cl)cc32)[nH]1 [Example 111, 3-[2-(5-Chloro-2-oxo-1,2-dihydroindol-3-ylidenemethyl)-5-methyl-1H-pyrrol-3-yl]propionic acid] | > 100
5 | COc1c(C(C)C)cc(/C=C2/C(=O)Nc3ccc(Br)cc32)cc1C(C)C [Example 54, 5-Bromo-3-(3,5-diisopropyl-4-methoxybenzylidene)-1,3-dihydroindol-2-one] | 79.3
6 | COc1c(C(C)C)cc(/C=C2/C(=O)Nc3cc(NC(=O)OC(C)(C)C)ccc32)cc1C(C)C [Example 52, [3-(3,5-Diisopropyl-4-methoxybenzylidene)-2-oxo-2,3-dihydro-1H-indol-6-yl]-carbamic acid tert-butyl ester] | > 100
7 | Cc1cccc2c1/C(=C/c1cc3ccccc3[nH]1)C(=O)N2 [Example 166, 3-(1H-indol-2-ylmethylene)-4-methyl-1,3-dihydro-indol-2-one] | > 100
8 | COc1ccc2c(c1)/C(=C\c1cc(C(C)C)c(OC)c(C(C)C)c1)C(=O)N2 [Example 17, 3-(3,5-Diisopropyl-4-methoxybenzylidene)-5-methoxy-1,3-dihydroindol-2-one] | 68
9 | COc1ccc(/C=C2/C(=O)Nc3ccc(Cl)cc32)cc1-c1ccccc1 [Example 67, 5-Chloro-3-(6-methoxybiphenyl-3-ylmethylene)-1,3-dihydroindol-2-one] | > 100
10 | COc1ccc(/C=C2/C(=O)Nc3ncccc32)cc1-c1ccccc1 [Example 71, 3-(6-Methoxybiphenyl-3-ylmethylene)-1,3-dihydropyrrolo[2,3-b]pyridin-2-one] | > 100
11 | COc1cccc(-c2cc(OC)c(OC)cc2/C=C2/C(=O)Nc3ccc(Cl)cc32)c1 [Example 61, 5-Chloro-3-(4,5-3′-Trimethoxybiphenyl-2-ylmethylene)-1,3-dihydroindol-2-one] | > 100
12 | COc1ccc(/C=C2/C(=O)Nc3ccccc32)cc1-c1ccccc1 [Example 65, 3-(6-Methoxybiphenyl-3-ylmethylene)-1,3-dihydroindol-2-one] | > 100
13 | COc1c(C(C)C)cc(/C=C2/C(=O)Nc3ccc(C(C)=O)cc32)cc1C(C)C [Example 5, 5-Acetyl-3-(3,5-diisopropyl-4-methoxybenzylidene)-1,3dihydroindol-2-one] | 21.5
14 | COc1c(C)cc(/C=C2/C(=O)Nc3ncccc32)cc1C [Example 56, 3-(4-Methoxy-3,5-dimethylbenzylidene)-1,3-dihydropyrrolo[2,3-b]pyridin-2-one] | > 100
15 | COc1cc(/C=C2/C(=O)Nc3ccccc32)c(-c2ccc3ccccc3c2)cc1OC [Example 62, 3-(4,5-Dimethoxy-2-naphthalen-2-ylbenzylidene)-1,3-dihydroindol-2-one] | > 100
16 | CC(=O)Nc1ccc2c(c1)NC(=O)/C2=C/c1ccc(OCCN2CCOCC2)c(-c2cccs2)c1 [Example 40, N-{3-[4-(2-Morpholin-4-ylethoxy)-3-thiophen-2-ylbenzylidene]-2-oxo-2,3-dihydro-1H-indol-6-yl}-acetamide] | 79

Row | SMILES | IC50 [µM]
17 | COc1cc(C)c(/C=C2/C(=O)Nc3ccc(Br)cc32)cc1C(C)C [Example 36, 5-Bromo-3-(5-isopropyl-4-methoxy-2-methyl-benzylidene)-1,3-dihydroindol-2-one] | 66.8
18 | COc1c(C(C)C)cc(/C=C2/C(=O)Nc3cc(N)ccc32)cc1C(C)C [Example 32, 6-Amino-3-(3,5-diisoprotyl-4-methoxy-benzylidene)-1,3-dihydroindol-2-one] | > 100
19 | COc1c(C(C)C)cc(/C=C2/C(=O)Nc3cc(F)ccc32)cc1C(C)C [Example 22, 3-(3,5-Diisopropyl-4-methoxybenzylidene)-6-fluoro-1,3-dihydroindol-2-one] | > 100
20 | O=C1Nc2ccccc2/C1=C\c1ccc2c(c1)CCO2 [Example 66, 3-(2,3-Dihydrobenzofuran-5-ylmethylene)-1,3-dihydroindol-2-one] | > 100
21 | Cc1cccc2c1/C(=C/c1ccc3c(c1)CCC(C)(C)O3)C(=O)N2 [Example 41, 3-(2,2-Dimethylchroman-6-ylmethylene)-4-methyl-1,3-dihydroindol-2-one] | > 100
22 | COC(=O)c1ccc2c(c1)/C(=C\c1cc(C(C)C)c(OC)c(C(C)C)c1)C(=O)N2 [Example 6, 3-(3,5-Diisopropyl-4-methoxybenzylidene)-2-oxo-2,3-dihydro-1H-indole-5-carboxylic acid methyl ester] | 40.5
23 | COc1ccc(/C=C2/C(=O)Nc3ccccc32)cc1C1CCCC1 [Example 10, 3-(3-Cyclopentyl-4-methoxybenzylidene)-1,3-dihydroindol-2-one] | 56.1
24 | CCOC(=O)c1c(C)[nH]c(/C=C2\C(=O)Nc3cc(-c4ccc(F)cc4)ccc32)c1CCC(=O)O [Example 108, 4-(2-Carboxyethyl)-5-[6-(4-fluorophenyl)-2-oxo-1,2-dihydro-indol-3-ylidenemethyl]-2-methyl-1H-pyrrole-3-carboxylic acid ethyl ester] | > 100
25 | O=C1Nc2ncccc2/C1=C\c1ccc2c(c1)CCO2 [Example 73, 3-(2,3-Dihydrobenzofuran-5-ylmethylene)-1,3-dihydropyrrolo[2,3-b]pyridin-2-one] | > 50
26 | COc1ccc(/C=C2/C(=O)Nc3ccc(Cl)cc32)cc1-c1cccnc1 [Example 60] | > 100
27 | COc1ccc(/C=C2/C(=O)Nc3ccccc32)cc1C(C)C [Example 7, 3-(3-Isopropyl-4-methoxybenzylidene)-1,3-dihydroindol-2-one] | 40.4
28 | O=C1Nc2ccc(F)cc2/C1=C\c1ccc2c(c1)CCO2 [Example 42, 3-(2,3-Dihydrobenzofuran-5-ylmethylene)-5-fluoro-1,3-dihydroindol-2-one] | > 100
29 | O=C1Nc2ccc(Br)cc2/C1=C/c1cc2ccccc2[nH]1 [Example 165, 5-Bromo-3-(1H-indol-2-ylmethylene)-1,3-dihydro-indol-2-one] | > 100
30 | COc1c(C(C)C)cc(/C=C2/C(=O)Nc3ncccc32)cc1C(C)C [Example 74, 3-(3,5-Diisopropyl-4-methoxybenzylidene)-1,3-dihydropyrrolo[2,3-b]pyridin-2-one] | > 100
31 | CC1(C)CCc2cc(C=C3C(=O)Nc4ccc(Br)cc43)ccc2O1 (racemic) [Example 34, 5-Bromo-3-(2,2-dimethylchroman-6-ylmethylene)-1,3-dihydroindol-2-one] | 38.2
